# Test results reported in patent US11939319B2, “Pyridinyl and pyrazinyl-(asa)indolsulfonamides” (UCB Pharma GmbH, priority 2018, dated 2024).
# Target: T1, GPR17 (Homo sapiens, UniProt Q13304)
# Experiment: Calcium mobilization functional assay (Ca2+ assay) in CHO hGPR17 cells
# Assay type: cell-based
# Set-up: host or cells: Flp-In T-REx CHO cells, expression induced with doxycycline
# Conditions: inhibition of 50 nM MDL29,951 (GPR17 agonist), activity range, read-out: Ca^2+ assay pIC50 (converted)
# Protocol: (§1) Flp-In T-REx CHO cells stably expressing human GPR17 receptor (CHO hGPR17) from Evi Kostenis' lab (Bonn University, Germany) were cultured at 37° C. in a humidified atmosphere of 5% CO2. Cells were grown in DMEM with Nutrient Mixture F-12 supplemented with hygromycin B (500 μg/ml) and blasticidin (30 μg/ml). Expression from the Flp-In locus was induced by treatment with doxycycline (1 μg/ml) for 16-20 h prior assays.
# GPR17 is a G-protein coupled receptor. GPR17 activation triggers Gq-type G-protein signaling resulting in endoplasmic reticulum calcium (Ca^2+) stores release in cytosol which can be measured using Calcium 5 dye, a fluorescent indicator dye of cytosolic Ca^2+ levels. The compounds of the present invention were assessed either in the Ca^2+ assay or in the GPR17 cAMP assay, described further below.
# CHO hGPR17 were defrosted and seeded at a density of 20,000 cells per well into black 384-well plates with clear bottom. Cells were incubated overnight at 37° C. in a humidified atmosphere of 5% CO2. Sixteen to twenty hours after seeding, CHO hGPR17 were loaded for 60 min with Calcium 5 dye, a cytosolic Ca^2+ indicator fluorescent dye, according to manufacturer's instructions. Fluorescent signal relative to cytosolic Ca^2+ concentration was recorded over time at room temperature in FLIPR Tetra reader. Cells were first incubated for 30 minutes at room temperature in HBSS Hepes buffer pH 7.4 containing increasing concentrations of test compounds (typically 10^−11 M to 10^−6M). Then, 50 nM MDL29,951, a GPR17 agonist, was added to the cells. Inhibitory effects of varying concentrations test compounds were measured and resulting pIC50S were determined. All incubations were performed in duplicate and results were compared to a concentration response curve of GPR17 agonist and antagonist reference compounds. Analysis and curve fitting were performed in ActivityBase XE using XLfit 4-parameter logistic equation y=A+((B−A)/(1+((C/x)^D))) where A, B, C and D stand for minimum y, maximum y, IC50 and slope, respectively.
# The activities of the Example compounds tested are depicted in the table 6 in Section B-IIB below. The activity ranges A, B and C refer to pIC50 values in the Ca^2+ assay as follows: “A”: pIC50 6.5≤x<7.5, “B”: pIC50 7.5≤x<8.5, “C”: 8.5≤pIC50
# T1 sequence (Q13304 29-367 limits assumed): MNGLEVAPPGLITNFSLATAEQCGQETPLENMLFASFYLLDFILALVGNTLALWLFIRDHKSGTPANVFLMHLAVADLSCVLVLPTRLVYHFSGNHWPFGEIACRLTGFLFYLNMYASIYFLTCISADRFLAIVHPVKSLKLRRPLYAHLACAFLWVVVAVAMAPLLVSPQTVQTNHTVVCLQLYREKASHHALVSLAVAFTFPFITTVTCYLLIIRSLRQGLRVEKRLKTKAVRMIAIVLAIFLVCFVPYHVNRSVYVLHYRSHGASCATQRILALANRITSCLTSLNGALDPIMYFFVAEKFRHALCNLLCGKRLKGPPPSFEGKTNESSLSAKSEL
row,Compound,IC50 [nM]
1,"O=S(=O)(Nc1cc(F)cnc1F)c1c[nH]c2cc(Cl)ccc12 [Example I-1, 6-chloro-N-(2,5-difluoropyridin-3-yl)-1H-indole-3-sulfonamide]",31.6 to 316
2,"O=S(=O)(Nc1cc(F)c(Cl)nc1F)c1c[nH]c2cc(Cl)ccc12 [Example I-2, 6-chloro-N-(6-chloro-2,5-difluoropyridin-3-yl)-1H-indole-3-sulfonamide]",≤ 3.16
3,"COc1nc(Cl)c(F)cc1NS(=O)(=O)c1c[nH]c2cc(Cl)ccc12 [Example I-3, 6-chloro-N-(6-chloro-5-fluoro-2-methoxypyridin-3-yl)-1H-indole-3-sulfonamide]",3.16 to 31.6
4,"COc1cc(NS(=O)(=O)c2c[nH]c3cc(Cl)ccc23)c(F)nc1Cl [Example I-4, 6-chloro-N-(6-chloro-2-fluoro-5-methoxypyridin-3-yl)-1H-indole-3-sulfonamide]",31.6 to 316
5,"COc1nc(F)c(NS(=O)(=O)c2c[nH]c3cc(Cl)ccc23)cc1F [Example I-5, 6-chloro-N-(2,5-difluoro-6-methoxypyridin-3-yl)-1H-indole-3-sulfonamide]",3.16 to 31.6
6,"COc1ccc(NS(=O)(=O)c2c[nH]c3cc(Cl)ccc23)c(Cl)n1 [Example I-8, 6-chloro-N-(2-chloro-6-methoxypyridin-3-yl)-1H-indole-3-sulfonamide]",31.6 to 316
7,"COc1ncc(Cl)cc1NS(=O)(=O)c1c[nH]c2cc(Cl)ccc12 [Example I-17, 6-chloro-N-(5-chloro-2-methoxypyridin-3-yl)-1H-indole-3-sulfonamide]",31.6 to 316
8,"N#Cc1ccc(NS(=O)(=O)c2c[nH]c3cc(Cl)ccc23)cn1 [Example I-19, 6-chloro-N-(6-cyanopyridin-3-yl)-1H-indole-3-sulfonamide]",31.6 to 316
9,"O=S(=O)(Nc1ccc(Br)nc1)c1c[nH]c2cc(Cl)ccc12 [Example I-20, N-(6-bromopyridin-3-yl)-6-chloro-1H-indole-3-sulfonamide]",31.6 to 316
10,"O=S(=O)(Nc1cnc(Cl)c(F)c1)c1c[nH]c2cc(Cl)ccc12 [Example I-23, 6-chloro-N-(6-chloro-5-fluoropyridin-3-yl)-1H-indole-3-sulfonamide]",31.6 to 316
11,"O=S(=O)(Nc1ccc(Cl)nc1)c1c[nH]c2cc(Cl)ccc12 [Example I-24, 6-chloro-N-(6-chloropyridin-3-yl)-1H-indole-3-sulfonamide]",31.6 to 316
12,"COc1ccc(NS(=O)(=O)c2c[nH]c3c2ccc2ccccc23)c(OC)n1 [Example I-70, N-(2,6-dimethoxypyridin-3-yl)-1H-benzo[g]indole-3-sulfonamide]",31.6 to 316

# Target: T1, GPR17
# Experiment: cAMP accumulation functional assay (HTRF) in CHO hGPR17 cells
# Assay type: cell-based
# Set-up: host or cells: Flp-In T-REx CHO cells, expression induced with doxycycline
# Conditions: Schild analysis against MDL29,951, 5 μM forskolin, activity range, read-out: cAMP assay pA2 (converted)
# Protocol: as §1
# GPR17 activation can also recruit Gi-type G-protein signaling, resulting in a decrease of intracellular cyclic adenosine monophosphate (cAMP). Intracellular cAMP changes can be measured using the HTRF cAMP dynamic assay kit from CisBio (Codolet, France). Using homogenous time-resolved fluorescence technology (HTRF), the assay is based on competition between native cAMP produced by cells and cAMP labelled with the dye d2. The tracer binding was determined by an anti-cAMP antibody labeled with cryptate.
# CHO hGPR17 were detached with PBS containing EDTA and dispatched in black 384-well plates with 5,000 cells per well. Cells were first incubated for 30 minutes at room temperature in HBSS Hepes (pH 7.4) containing vehicle or varying concentrations of test GPR17 antagonist/inverse agonist compounds. Then, a dose response curve of MDL29,951 GPR17 agonist (typically from 10^−5M to 10^−10M) was added on vehicle and on each test GPR17 antagonist/inverse agonist compound concentration in a final volume of 20 μL HBSS Hepes buffer (pH 7.4) containing 1% DMSO, 5 μM forskolin and 0.1 mM IBMX. After 60 minutes incubation at room temperature, the reaction is terminated and the cells lysed by adding the d2 detection reagent and the cryptate reagent in 10 μL lysis buffer each according to manufacturer's instructions. After 60 minutes incubation, changes in cAMP concentrations are measured according to manufacturer's instructions using an Envision plate reader with laser excitation. All incubations were performed in duplicate. Data was analyzed using GraphPad Prism software using the 4-parameter logistic equation to measure MDL29,951 pEC50s in absence and presence of GPR17 antagonist/inverse agonist test compounds. Dose ratio (DR) were plotted against antagonist concentrations and Schild analysis provided estimated affinity pA2 of GPR17 antagonist/inverse agonist test compounds.
# The activities of the Example compounds tested are depicted in the table below. The activity ranges A, B and C refer to pA2 values in the cAMP assay as follows: “A”: pA2 6.5≤x<7.5, “B”: pA2 7.5≤x<8.5, “C”: 8.5≤pA2.
row,Compound,Kb [nM]
1,"O=S(=O)(Nc1cc(F)c(Cl)nc1F)c1c[nH]c2cc(Cl)ccc12 [Example I-2, 6-chloro-N-(6-chloro-2,5-difluoropyridin-3-yl)-1H-indole-3-sulfonamide]",3.16 to 31.6
2,"COc1nc(Cl)c(F)cc1NS(=O)(=O)c1c[nH]c2cc(Cl)ccc12 [Example I-3, 6-chloro-N-(6-chloro-5-fluoro-2-methoxypyridin-3-yl)-1H-indole-3-sulfonamide]",≤ 3.16
3,"COc1nc(F)c(NS(=O)(=O)c2c[nH]c3cc(Cl)ccc23)cc1F [Example I-5, 6-chloro-N-(2,5-difluoro-6-methoxypyridin-3-yl)-1H-indole-3-sulfonamide]",3.16 to 31.6
4,"COc1nc(OC)c(NS(=O)(=O)c2c[nH]c3nc(C(F)F)ccc23)cc1F [Example I-56, 6-(difluoromethyl)-N-(5-fluoro-2,6-dimethoxypyridin-3-yl)-1H-pyrrolo[2,3-b]pyridine-3-sulfonamide]",3.16 to 31.6
5,"Cc1nc(F)c(NS(=O)(=O)c2c[nH]c3nc(C(F)F)ccc23)cc1F [Example I-57, 6-(difluoromethyl)-N-(2,5-difluoro-6-methylpyridin-3-yl)-1H-pyrrolo[2,3-b]pyridine-3-sulfonamide]",3.16 to 31.6
6,"COc1nc(OCCOC(F)F)c(F)cc1NS(=O)(=O)c1c[nH]c2nc(C(F)F)ccc12 [Example I-58, N-[6-[2-(difluoromethoxy)ethoxy]-5-fluoro-2-methoxypyridin-3-yl]-6-(difluoromethyl)-1H-pyrrolo[2,3-b]pyridine-3-sulfonamide]",≤ 3.16
7,"COc1nc(OC(F)F)c(F)cc1NS(=O)(=O)c1c[nH]c2cc(C)ccc12 [Example I-60, N-[6-(difluoromethoxy)-5-fluoro-2-methoxypyridin-3-yl]-6-methyl-1H-indole-3-sulfonamide]",≤ 3.16
8,"COc1ccc(NS(=O)(=O)c2c[nH]c3cc(Cl)ccc23)c(OC)n1 [Example I-61, 6-chloro-N-(2,6-dimethoxypyridin-3-yl)-1H-indole-3-sulfonamide]",31.6 to 316
9,"COc1nc(OCC(F)F)c(F)cc1NS(=O)(=O)c1c[nH]c2cc(C(F)F)ccc12 [Example I-62, N-[6-(2,2-difluoroethoxy)-5-fluoro-2-methoxypyridin-3-yl]-6-(difluoromethyl)-1H-indole-3-sulfonamide]",≤ 3.16
10,"COc1ccc2c(S(=O)(=O)Nc3cc(F)c(OC(F)F)nc3OC)c[nH]c2c1 [Example I-63, N-[6-(difluoromethoxy)-5-fluoro-2-methoxypyridin-3-yl]-6-methoxy-1H-indole-3-sulfonamide]",≤ 3.16
11,"COc1ccc2c(S(=O)(=O)Nc3cc(F)c(OCC(F)F)nc3OC)c[nH]c2c1 [Example I-64, N-[6-(2,2-difluoroethoxy)-5-fluoro-2-methoxypyridin-3-yl]-6-methoxy-1H-indole-3-sulfonamide]",≤ 3.16
12,"COc1nc(OCC(F)F)c(F)cc1NS(=O)(=O)c1c[nH]c2cc(C#N)ccc12 [Example I-65, 6-cyano-N-[6-(2,2-difluoroethoxy)-5-fluoro-2-methoxypyridin-3-yl]-1H-indole-3-sulfonamide]",3.16 to 31.6
13,"COc1nc(OC(F)F)c(F)cc1NS(=O)(=O)c1c[nH]c2cc(C#N)ccc12 [Example I-66, 6-cyano-N-[6-(difluoromethoxy)-5-fluoro-2-methoxypyridin-3-yl]-1H-indole-3-sulfonamide]",≤ 3.16
14,"O=S(=O)(Nc1cc(F)c(OCC(F)F)nc1F)c1c[nH]c2cc(Cl)ccc12 [Example I-67, 6-chloro-N-[6-(2,2-difluoroethoxy)-2,5-difluoropyridin-3-yl]-1H-indole-3-sulfonamide]",≤ 3.16
15,"COc1nc(OC(F)F)c(F)cc1NS(=O)(=O)c1c[nH]c2c1ccc1cccnc12 [Example I-68, N-[6-(difluoromethoxy)-5-fluoro-2-methoxypyridin-3-yl]-1H-pyrrolo[3,2-h]quinoline-3-sulfonamide]",≤ 3.16
16,"COc1nc(OCC(F)F)c(F)cc1NS(=O)(=O)c1c[nH]c2c1ccc1cccnc12 [Example I-69, N-[6-(2,2-difluoroethoxy)-5-fluoro-2-methoxypyridin-3-yl]-1H-pyrrolo[3,2-h]quinoline-3-sulfonamide]",≤ 3.16
17,"COc1nc(OCC(F)F)c(F)cc1NS(=O)(=O)c1c[nH]c2nc(Cl)c(Br)cc12 [Example I-71, 5-bromo-6-chloro-N-[6-(2,2-difluoroethoxy)-5-fluoro-2-methoxypyridin-3-yl]-1H-pyrrolo[2,3-b]pyridine-3-sulfonamide]",≤ 3.16
18,"COc1nc(Cl)c(F)cc1NS(=O)(=O)c1c[nH]c2nc(OCc3ccccc3)ccc12 [Example I-72, N-(6-chloro-5-fluoro-2-methoxypyridin-3-yl)-6-phenylmethoxy-1H-pyrrolo[2,3-b]pyridine-3-sulfonamide]",31.6 to 316
